Laboratory results as given in patent US10112926B2 (priority 2014, dated 2018).
Structures can show the parent of a compound that is named as a salt.

Key:
PI 3-kinase alpha = PI 3-kinase alpha (Homo sapiens (Human), UniProt P42336); details: read-out: Assay A PI3Kα IC50
[1] = target: PI 3-kinase beta (Rat-1 pBABEpuro Myr-HA-hp110 beta cells) (Homo sapiens (Human), UniProt P42338); test: cell-based; details: Assay I PI3Kβ IC50
Description: (§1) Cellular Assays for PI 3-Kinase Alpha (H1), Beta (I1) and Delta (J1): Surefire Format
(§2) The brand name SureFire denotes AlphaScreen assays that are adapted to quantify the phosphorylation of endogenous cellular proteins in cell lysates, by using matched antibody pairs, which consist of an anti-phospho-kinase and an anti-kinase antibody. The assay allows characterization of kinase signaling in cells as well as measurement of kinase inhibitor effects.
(§3) The p-Akt (S473) SureFire assay measures the phosphorylation of endogenous cellular Akt 1/2 at Ser473 in cell lysates. Using Rat-1 cells stably expressing myr-HA-tagged versions of the human PI3Kdelta, PI3Kalpha, or PI3Kbeta p110 catalytic subunit isoforms, the assay was developed as a two-plate protocol in a 384-well format.
(§4) For compound testing, the cells were seeded at a density of 4000 (Rat-1_PI3Kdelta), 7500 (Rat-1_PI3Kalpha), or 6200 (Rat-1_PI3Kbeta) cells in 20 μl complete growth medium into cell culture treated 384-well plates and were grown at 37° C./5% CO2/90% humidity for 24 h. Shortly before compound transfer, the complete medium was removed, 30 μl assay buffer (DMEM high glucose, 1×MEM NEAA, 10 mM HEPES, 2 mM L-glutamine, 0.1% (w/v) BSA) was added and 10 μl of the compound predilutions were transferred to the cells. […]

PI 3-kinase beta = PI 3-kinase beta (Homo sapiens (Human), UniProt P42338); details: read-out: Assay B PI3Kβ IC50
[2] = target: PI 3-kinase alpha (Rat-1 pBABEpuro Myr-HA-hp110 alpha cells) (Homo sapiens (Human), UniProt P42336); test: cell-based; details: Assay H PI3Kα IC50
Description: as §1, §2, §3, §4

PI 4-kinase beta = PI 4-kinase beta (Homo sapiens (Human), UniProt Q9UBF8); details: read-out: Assay D PI4Kβ IC50
Vps34 = Vps34 (Homo sapiens (Human), UniProt Q8NEB9); details: read-out: Assay C VPS34 IC50
mTOR = mTOR (Homo sapiens (Human), UniProt P42345); details: read-out: Assay G mTOR IC50
PI 3-kinase delta = PI 3-kinase delta (Homo sapiens (Human), UniProt O00329); details: read-out: Assay F PI3Kδ IC50
PI 3-kinase gamma = PI 3-kinase gamma (Homo sapiens (Human), UniProt P48736)
[3] = target: PI 3-kinase gamma (U937 cells, MIP1α-stimulated AKT phosphorylation) (Homo sapiens (Human), UniProt P48736); details: read-out: Assay K2 PI3Kγ IC50

Chain of PI 3-kinase alpha (P42336 whole entry, looked up): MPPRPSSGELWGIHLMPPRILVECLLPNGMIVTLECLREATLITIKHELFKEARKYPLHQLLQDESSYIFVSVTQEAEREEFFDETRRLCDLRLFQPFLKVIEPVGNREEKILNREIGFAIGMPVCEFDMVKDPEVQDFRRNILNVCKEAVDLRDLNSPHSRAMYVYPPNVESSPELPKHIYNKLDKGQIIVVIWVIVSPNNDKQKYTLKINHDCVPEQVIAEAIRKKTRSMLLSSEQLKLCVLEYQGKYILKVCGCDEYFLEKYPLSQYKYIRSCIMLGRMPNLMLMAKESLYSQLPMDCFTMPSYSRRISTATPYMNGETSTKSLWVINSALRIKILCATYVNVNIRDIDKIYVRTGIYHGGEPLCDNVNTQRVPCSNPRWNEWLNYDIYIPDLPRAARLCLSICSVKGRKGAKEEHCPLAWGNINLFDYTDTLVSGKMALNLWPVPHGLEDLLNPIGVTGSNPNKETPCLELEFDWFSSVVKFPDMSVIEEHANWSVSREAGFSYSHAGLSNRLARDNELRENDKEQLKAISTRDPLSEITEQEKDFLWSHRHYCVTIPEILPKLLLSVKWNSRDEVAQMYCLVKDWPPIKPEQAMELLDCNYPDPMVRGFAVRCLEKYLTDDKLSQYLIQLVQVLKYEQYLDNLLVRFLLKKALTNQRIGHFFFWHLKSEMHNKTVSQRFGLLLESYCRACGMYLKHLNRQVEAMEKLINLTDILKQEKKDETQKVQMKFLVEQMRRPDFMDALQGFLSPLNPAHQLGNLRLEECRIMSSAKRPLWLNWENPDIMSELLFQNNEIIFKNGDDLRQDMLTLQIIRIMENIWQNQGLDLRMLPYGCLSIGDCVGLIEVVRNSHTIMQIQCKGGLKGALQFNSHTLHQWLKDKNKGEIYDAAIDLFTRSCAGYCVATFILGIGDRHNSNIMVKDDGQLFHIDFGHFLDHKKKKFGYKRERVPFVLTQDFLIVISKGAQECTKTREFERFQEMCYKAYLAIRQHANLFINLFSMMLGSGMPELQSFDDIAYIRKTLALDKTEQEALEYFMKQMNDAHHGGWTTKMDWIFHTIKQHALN
Chain of PI 3-kinase alpha (P27986 whole entry partner, looked up): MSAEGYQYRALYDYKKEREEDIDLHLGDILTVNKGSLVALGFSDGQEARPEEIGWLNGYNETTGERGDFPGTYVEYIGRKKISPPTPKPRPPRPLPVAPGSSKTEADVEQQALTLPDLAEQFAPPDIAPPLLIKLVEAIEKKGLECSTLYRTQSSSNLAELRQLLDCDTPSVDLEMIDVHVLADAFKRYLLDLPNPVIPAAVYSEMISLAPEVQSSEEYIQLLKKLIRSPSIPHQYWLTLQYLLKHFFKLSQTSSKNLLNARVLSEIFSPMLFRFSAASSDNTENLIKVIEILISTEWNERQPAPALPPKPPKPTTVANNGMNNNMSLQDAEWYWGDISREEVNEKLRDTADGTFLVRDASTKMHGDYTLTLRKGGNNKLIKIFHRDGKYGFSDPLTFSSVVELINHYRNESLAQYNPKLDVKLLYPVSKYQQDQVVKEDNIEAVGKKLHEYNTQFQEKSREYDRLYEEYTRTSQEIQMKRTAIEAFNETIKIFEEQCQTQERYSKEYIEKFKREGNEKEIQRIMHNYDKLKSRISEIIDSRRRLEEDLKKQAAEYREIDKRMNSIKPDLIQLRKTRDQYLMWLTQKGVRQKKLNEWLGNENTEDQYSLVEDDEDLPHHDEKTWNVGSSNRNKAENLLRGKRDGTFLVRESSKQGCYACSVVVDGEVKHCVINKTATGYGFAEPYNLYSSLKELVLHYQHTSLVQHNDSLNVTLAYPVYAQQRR
Chain of PI 3-kinase beta (P42338 whole entry, looked up): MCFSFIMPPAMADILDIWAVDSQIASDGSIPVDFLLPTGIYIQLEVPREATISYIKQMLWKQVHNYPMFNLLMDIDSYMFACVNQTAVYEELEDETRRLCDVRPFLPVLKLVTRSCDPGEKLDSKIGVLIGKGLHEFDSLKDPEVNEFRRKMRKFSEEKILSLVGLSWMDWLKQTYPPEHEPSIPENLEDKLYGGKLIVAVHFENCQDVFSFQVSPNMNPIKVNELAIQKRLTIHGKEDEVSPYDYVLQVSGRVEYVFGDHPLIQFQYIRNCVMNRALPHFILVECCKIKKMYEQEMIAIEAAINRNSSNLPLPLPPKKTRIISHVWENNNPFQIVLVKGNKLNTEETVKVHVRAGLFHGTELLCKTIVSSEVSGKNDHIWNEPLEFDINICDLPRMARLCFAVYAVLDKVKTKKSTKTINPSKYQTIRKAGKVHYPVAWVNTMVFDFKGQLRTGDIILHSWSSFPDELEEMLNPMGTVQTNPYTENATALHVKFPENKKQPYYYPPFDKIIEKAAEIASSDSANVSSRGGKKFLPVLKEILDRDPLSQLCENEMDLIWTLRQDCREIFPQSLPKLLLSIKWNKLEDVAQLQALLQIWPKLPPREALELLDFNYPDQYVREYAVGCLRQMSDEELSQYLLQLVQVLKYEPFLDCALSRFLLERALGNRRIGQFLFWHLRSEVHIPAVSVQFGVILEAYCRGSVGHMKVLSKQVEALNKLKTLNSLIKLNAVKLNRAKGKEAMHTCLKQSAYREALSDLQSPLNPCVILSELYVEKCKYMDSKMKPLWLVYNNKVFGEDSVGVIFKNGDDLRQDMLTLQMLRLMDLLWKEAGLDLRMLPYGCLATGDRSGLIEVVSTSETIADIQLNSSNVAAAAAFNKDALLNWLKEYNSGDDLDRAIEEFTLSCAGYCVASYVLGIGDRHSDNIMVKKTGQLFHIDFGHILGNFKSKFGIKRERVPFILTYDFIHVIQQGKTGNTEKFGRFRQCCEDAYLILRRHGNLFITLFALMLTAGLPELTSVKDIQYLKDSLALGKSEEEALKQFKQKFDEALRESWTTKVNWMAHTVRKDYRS
Chain of PI 3-kinase beta (P27986 whole entry partner, looked up): as the sequence (P27986 whole entry partner, looked up) above
Chain of Vps34 (Q8NEB9 whole entry): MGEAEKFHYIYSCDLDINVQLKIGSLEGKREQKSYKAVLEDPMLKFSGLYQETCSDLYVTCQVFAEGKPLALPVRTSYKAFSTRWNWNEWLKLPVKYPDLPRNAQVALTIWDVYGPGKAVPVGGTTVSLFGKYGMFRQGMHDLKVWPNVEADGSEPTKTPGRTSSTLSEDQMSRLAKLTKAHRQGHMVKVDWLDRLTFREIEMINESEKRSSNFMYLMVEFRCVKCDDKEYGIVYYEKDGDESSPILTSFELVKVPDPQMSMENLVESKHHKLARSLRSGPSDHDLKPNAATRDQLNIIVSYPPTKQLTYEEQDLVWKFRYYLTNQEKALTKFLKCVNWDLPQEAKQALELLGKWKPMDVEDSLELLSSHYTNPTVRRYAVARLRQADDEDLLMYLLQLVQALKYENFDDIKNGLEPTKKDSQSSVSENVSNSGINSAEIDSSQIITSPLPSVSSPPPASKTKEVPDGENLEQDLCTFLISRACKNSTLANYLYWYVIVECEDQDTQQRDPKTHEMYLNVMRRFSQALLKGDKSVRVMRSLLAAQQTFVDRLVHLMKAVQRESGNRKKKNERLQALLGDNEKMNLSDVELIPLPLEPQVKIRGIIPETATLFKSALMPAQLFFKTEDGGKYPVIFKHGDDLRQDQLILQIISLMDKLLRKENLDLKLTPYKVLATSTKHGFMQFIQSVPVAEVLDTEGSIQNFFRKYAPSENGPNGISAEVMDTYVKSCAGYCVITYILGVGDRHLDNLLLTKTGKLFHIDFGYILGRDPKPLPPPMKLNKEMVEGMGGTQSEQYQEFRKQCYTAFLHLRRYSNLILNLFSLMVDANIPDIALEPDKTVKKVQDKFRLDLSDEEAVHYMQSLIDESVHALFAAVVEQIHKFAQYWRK
Chain of PI 4-kinase beta (Q9UBF8 whole entry): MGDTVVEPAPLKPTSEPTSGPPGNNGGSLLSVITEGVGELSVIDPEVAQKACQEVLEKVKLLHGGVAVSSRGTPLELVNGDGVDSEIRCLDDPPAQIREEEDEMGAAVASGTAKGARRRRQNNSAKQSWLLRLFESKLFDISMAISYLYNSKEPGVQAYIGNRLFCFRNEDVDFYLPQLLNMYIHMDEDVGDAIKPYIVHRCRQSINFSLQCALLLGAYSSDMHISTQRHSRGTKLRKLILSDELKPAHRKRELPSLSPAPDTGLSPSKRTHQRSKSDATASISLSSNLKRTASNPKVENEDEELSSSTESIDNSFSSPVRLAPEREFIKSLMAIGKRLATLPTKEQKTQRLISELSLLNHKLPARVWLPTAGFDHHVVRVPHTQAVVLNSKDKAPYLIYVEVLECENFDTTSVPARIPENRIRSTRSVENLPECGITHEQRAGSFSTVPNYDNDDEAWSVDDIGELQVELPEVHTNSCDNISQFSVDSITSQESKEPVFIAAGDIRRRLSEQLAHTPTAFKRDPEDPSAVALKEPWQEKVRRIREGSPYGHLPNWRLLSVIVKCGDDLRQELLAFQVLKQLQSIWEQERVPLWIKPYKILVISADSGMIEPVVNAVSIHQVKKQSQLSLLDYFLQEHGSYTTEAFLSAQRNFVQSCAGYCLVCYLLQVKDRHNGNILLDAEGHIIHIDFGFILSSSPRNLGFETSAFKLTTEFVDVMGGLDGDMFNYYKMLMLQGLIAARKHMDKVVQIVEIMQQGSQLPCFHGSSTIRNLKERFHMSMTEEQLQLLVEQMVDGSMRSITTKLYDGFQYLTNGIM

Row | Compound | IC50 (PI 3-kinase alpha) | IC50 [1] | IC50 (PI 3-kinase beta) | IC50 [2] | IC50 (PI 4-kinase beta) | IC50 (Vps34) | IC50 (mTOR) | IC50 (PI 3-kinase delta) | activity in assay E (PI 3-kinase gamma) | IC50 [3]
1 | Cc1noc(-c2cc(-c3cc(S(=O)(=O)NCC(C)(C)O)c(C)cc3C)cnc2N)n1 [Example 100] | 0.26 µM | > 10 µM | 2.25 µM | 4.14 µM | 4.25 µM | > 10 µM |  |  |  | 
2 | Cc1cc(-c2cc(-c3cc(S(=O)(=O)N[C@H]4CC[C@H](O)CC4)ccc3C)cnc2N)ccn1 [Example 4.3, trans 3-(2-Amino-2′-methyl-[3,4′-bipyridin]-5-yl)-N-(4-hydroxycyclohexyl)-4-methyl-benzenesulfonamide] | 0.26 µM |  | 7.2 µM |  | 1.7 µM | > 10 µM | 7.3 µM |  |  | 
3 | Cc1ncc(-c2cc(-c3cc(S(=O)(=O)NCC4(O)COC4)ccc3C)cnc2N)s1 [Example 83.3, 3-(6-amino-5-(2-methylthiazol-5-yl)pyridin-3-yl)-N-((3-hydroxyoxetan-3-yl)methyl)-4-methylbenzenesulfonamide] | 0.57 µM |  | 3 µM |  | 1.7 µM | 9.7 µM |  | 0.9 µM |  | 
4 | Cc1noc(-c2cc(-c3cc(S(=O)(=O)NCC(C)(C)O)ccc3C(F)(F)F)cnc2N)n1 [3-(6-amino-5-(3-methyl-1,2,4-oxadiazol-5-yl)pyridin-3-yl)-N-(2-hydroxy-2-methylpropyl)-4-(trifluoromethyl)benzenesulfonamide] |  |  |  |  |  |  |  |  | inactive | 
5 | Cc1ccc(S(=O)(=O)NC2CC3(CC(O)C3)C2)cc1-c1cnc(N)c(-c2cn(C)nc2C)c1 (stereo not shown) [Example 26, 3-(6-Amino-5-(1,3-dimethyl-1H-pyrazol-4-yl)pyridin-3-yl)-N-(6-hydroxyspiro[3.3]heptan-2-yl)-4-methylbenzenesulfonamide] | 0.22 µM |  | 3 µM |  | 3.4 µM | > 10 µM | 0.32 µM |  |  | 
6 | Cc1cc(-c2cnc(N)c(-c3nc(C)no3)c2)cc(S(=O)(=O)NCC(C)(C)O)c1 [3-(6-amino-5-(3-methyl-1,2,4-oxadiazol-5-yl)pyridin-3-yl)-N-(2-hydroxy-2-methylpropyl)-5-methylbenzenesulfonamide] |  |  |  |  |  |  |  |  | inactive | 
7 | Cc1nnc(-c2cc(-c3cc(S(=O)(=O)NCCC(C)(C)O)ccc3C)cnc2N)o1 [Example 5.6, 3-(6-Amino-5-(5-methyl-1,3,4-oxa-diazol-2-yl)pyridin-3-yl)-N-(3-hydroxy-3-methylbutyl)-4-methylbenzenesulfon-amide] | 0.7 µM |  | 4.5 µM |  | 7.8 µM | > 10 µM | > 10 µM |  |  | 
8 | Cc1ncc(-c2cc(-c3cc(S(=O)(=O)N4CC(CO)C4)ccc3C)cnc2N)s1 [Example 83.1, (1-((3-(6-Amino-5-(2-methylthiazol-5-yl)pyridin-3-yl)-4-methylphenyl)sulfonyl)azetidin-3-yl)methanol] | 0.4 µM |  | 2.5 µM |  |  |  |  | 1.3 µM |  | 
9 | Cc1cccc(NS(=O)(=O)c2ccc(C)c(-c3cnc(N)c(-c4cnn(C)c4)c3)c2)n1 [Example 30, 3-(6-Amino-5-(1-methyl-1H-pyrazol-4-yl)pyridin-3-yl)-4-methyl-N-(6-methylpyridin-2-yl)benzenesulfonamide] | 0.33 µM |  | 1.5 µM |  | 3.1 µM | > 10 µM | 4.7 µM |  |  | 
10 | Cc1ncc(-c2cc(-c3cc(S(=O)(=O)NCC4(O)CCOCC4)ccc3C)cnc2N)o1 [Example 114.3, 3-(6-amino-5-(2-methyloxazol-5-yl)pyridin-3-yl)-N-((4-hydroxytetrahydro-2H-pyran-4-yl)methyl)-4-methylbenzenesulfon-amide] | 0.59 µM |  | 8.4 µM |  | 8.1 µM | > 10 µM |  |  |  | 
11 | Cc1ncc(-c2cc(-c3cc(S(=O)(=O)NC(CO)C(F)(F)F)ccc3C)cnc2N)o1 (stereo not shown) [Example 114.2, 3-(6-amino-5-(2-methyloxazol-5-yl)pyridin-3-yl)-4-methyl-N-(1,1,1-trifluoro-3-hydroxypropan-2-yl)benzenesulfonamide] | 0.41 µM |  | 2.8 µM |  | 2.3 µM | 4.4 µM |  |  |  | 
12 | Cc1ncc(-c2cc(-c3cc(S(=O)(=O)NC4CCC(O)(C(F)(F)F)C4)ccc3C)cnc2N)o1 (stereo not shown) [Example 114.4, 3-(6-amino-5-(2-methyloxazol-5-yl)pyridin-3-yl)-N-(3-hydroxy-3-(trifluoromethyl)cyclo-pentyl)-4-methylbenzenesulfon-amide] | 0.08 µM |  | 1.2 µM |  | 0.63 µM | 1.2 µM |  |  |  | 
13 | Cc1ncc(-c2cc(-c3cc(S(=O)(=O)N[C@H]4CCC[C@H](O)C4)ccc3C)cnc2N)o1 [Example 112, 3-(6-amino-5-(2-methyloxazol-5-yl)pyridin-3-yl)-N-((1S,3S)-3-hydroxycyclohexyl)-4-methylbenzenesulfonamide] | 0.14 µM |  | 0.66 µM |  | 0.73 µM | 3.5 µM |  |  |  | 
14 | Cc1noc(-c2cc(-c3cc(S(=O)(=O)NCCN)ccc3C)cnc2N)n1 [Example 37.29, 3-(6-Amino-5-(3-methyl-1,2,4-oxadiazol-5-yl)pyridin-3-yl)-N-(2-aminoethyl)-4-methylbenzenesulfonamide] | 0.91 µM |  | 0.91 µM |  | 7.1 µM | > 10 µM | > 10 µM |  |  | 
15 | Cc1ccc(S(=O)(=O)N[C@H]2CC[C@H](O)CC2)cc1-c1cnc(N)c(-c2cnn(C)c2)c1 [Example 4.1, trans 3-(6-Amino-5-(1-methyl-1H-pyrazol-4-yl)pyridin-3-yl)-N-(4-hydroxycyclohexyl)-4-methylbenzene-sulfonamide] | 0.28 µM |  | 1.6 µM |  | 3.9 µM | 6.6 µM | 9.5 µM |  |  | 
16 | Cc1cc(-c2cc(-c3cc(S(=O)(=O)NCC4(O)CCC4)ccc3C)cnc2N)on1 [Example 37.35, 3-(6-Amino-5-(3-methylisoxazol-5-yl)pyridin-3-yl)-N-((1-hydroxycyclobutyl)methyl)-4-methylbenzenesulfonamide] |  |  |  |  |  | > 10 µM | > 10 µM |  |  | 0.101 µM
17 | Cc1noc(-c2cc(-c3cc(C(F)(F)F)cc(S(=O)(=O)NCC(C)(C)O)c3)cnc2N)n1 [3-(6-amino-5-(3-methyl-1,2,4-oxadiazol-5-yl)pyridin-3-yl)-N-(2-hydroxy-2-methylpropyl)-5-(trifluoromethyl)benzenesulfonamide] |  |  |  |  |  |  |  |  | inactive | 
18 | Cc1ncc(-c2cc(-c3cc(S(=O)(=O)NC4CC5(CC(O)C5)C4)ccc3C)cnc2N)s1 (stereo not shown) [Example 28, 3-(6-Amino-5-(2-methylthiazol-5-yl)pyridin-3-yl)-N-(6-hydroxyspiro[3.3]heptan-2-yl)-4-methylbenzenesulfonamide] | 0.05 µM |  | 0.45 µM |  | 0.68 µM | 2 µM |  |  |  | 
19 | Cc1noc(-c2cc(-c3cc(S(=O)(=O)N[C@@H]4CCNC(=O)C4)ccc3C)cnc2N)n1 [Example 37.25, (R)-3-(6-Amino-5-(3-methyl-1,2,4-oxadiazol-5-yl)pyridin-3-yl)-4-methyl-N-(2-oxopiperidin-4-yl)benzenesulfonamide] | 3.8 µM |  | > 10 µM |  | > 10 µM | > 10 µM | > 10 µM |  |  | 
20 | Cc1ccc(S(=O)(=O)N[C@H]2CC[C@H](O)CC2)cc1-c1cnc(N)c(-c2nc(CC(F)(F)F)no2)c1 [Example 78, trans-3-(6-Amino-5-(3-(2,2,2-trifluoroethyl)-1,2,4-oxadiazol-5-yl)pyridin-3-yl)-N-((1r,4r)-4-hydroxycyclohexyl)-4-methylbenzenesulfonamide] |  | > 10 µM | 2.5 µM |  | 0.49 µM | > 10 µM |  |  |  | 
21 | Cc1ncc(-c2cc(-c3cc(S(=O)(=O)NCC4COC4)ccc3C)cnc2N)s1 [Example 83.2, 3-(6-Amino-5-(2-methylthiazol-5-yl)pyridin-3-yl)-4-methyl-N-(oxetan-3-ylmethyl)benzenesulfonamide] | 0.4 µM |  | 6.2 µM |  | 2.4 µM | 6.2 µM |  |  |  | 
22 | Cc1cc(-c2cc(-c3cc(S(=O)(=O)N4CC[C@H](N(C)C)C4)ccc3C)cnc2N)on1 [Example 19.22, (S)-5-(5-((3-(dimethylamino)pyrrolidin-1-yl)sulfonyl)-2-methylphenyl)-3-(3-methylisoxazol-5-yl)pyridin-2-amine acetic acid salt] | 2 µM |  | 5.8 µM |  | 8.6 µM | > 10 µM |  |  |  | 
23 | Cc1ncc(-c2cc(-c3cc(S(=O)(=O)NCCO)ccc3C)cnc2N)s1 [Example 83.5, 3-(6-Amino-5-(2-methylthiazol-5-yl)pyridin-3-yl)-N-(2-hydroxyethyl)-4-methylbenzenesulfonamide] | 0.43 µM |  | 3.4 µM |  | 2.8 µM | 5.2 µM |  |  |  | 
